The record followed here is publication PMC5504357, “Antifungal Potential of Copper(II), Manganese(II) and Silver(I) 1,10-Phenanthroline Chelates Against Multidrug-Resistant Fungal Species Forming the Candida haemulonii Complex: Impact on the Planktonic and Biofilm Lifestyles” (Frontiers in Microbiology, 2017).

The test system of series [1] is Candida duobushaemulonii. Briefly: Planktonic growth, broth microdilution (CLSI M27-A3), MIC. It is filed as cell-based. To be noted: for GM-MIC: geometric mean of three C. duobushaemulonii isolates; for MIC: planktonic, 48 h, 37°C. The procedure, abridged:
(§1)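 Visual read-out: MIC taken as the lowest concentration showing no growth after 48 h incubation at 37°C in RPMI 1640. Compounds were serially diluted from DMSO solutions to 0.0625-32 mg/L, with matching DMSO controls, against three clinical isolates of each species.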
A general note: Broth dilution looks for growth in wells or tubes with falling amounts of substance.

Series [2] has as its system Candida haemulonii var. vulnera. The description is as above. It counts as cell-based. Conditions: for GM-MIC: geometric mean of three C. haemulonii var. vulnera isolates; for MIC: planktonic, 48 h, 37°C. The procedure, abridged: as §1
Series [3] concerns Candida haemulonii. The description is as above. To be noted: for GM-MIC: geometric mean of three C. haemulonii isolates; for MIC: planktonic, 48 h, 37°C. It is filed as cell-based. A digest of the protocol: as §1
Series [4] relates to C. haemulonii complex. Put plainly: Planktonic growth, overall across all nine isolates. It is filed as cell-based, Candida haemulonii complex. Conditions: geometric mean across all nine strains; for MIC: in μM, read-out: Overall GM-MIC. A digest of the protocol: as §1
Series [5] relates to Candida haemulonii complex. Briefly: Biofilm-growing cells, overall across isolates. It counts as cell-based. To be noted: for Overall GM-bMIC: geometric mean across strains, values marked * do not include LIP Ch4 (>512). The procedure, abridged:
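Yeasts (10^6 cells) form biofilms over 48 h at 37°C in Sabouraud-dextrose broth. Non-adherent cells are washed off with PBS, compounds are added at the planktonic-assay concentrations for a further 48 h, and XTT reduction gives metabolic activity, with 50% inhibition defining bMIC.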

Series [6] can be described thus: Solubility in solvents. It is filed as physicochemical. To be noted: solvents as named. How it is done:
{[Cu(3,6,9-tdda)(phen)2].3H2O.EtOH}n (7). Step (i): Copper(II) acetate hydrate (1.50 g; 7.51 mmol) was dissolved in ethanol (50 mL) and the solution was added to an ethanolic solution (25 mL) of 3,6,9-trioxaundecanedioic acid (3,6,9-tddaH2) (2.84 g; […]). The light-green suspension was refluxed for 1 h, and after cooling to room temperature the light-green solid, [Cu(3,6,9-tdda)].H2O, was filtered off, washed with cold ethanol and air dried. Yield: 1.88 g (82.97%). % Calculated: C: 31.84, H: 4.68. % Found: C: 32.20, H: 4.60. […] Step (ii): [Cu(3,6,9-tdda)].H2O (1.00 g; 3.31 mmol) and phen (2.39 g; 13.26 mmol) were dissolved together in ethanol (50 mL) and the resulting dark-green mixture was refluxed for 2 h. The suspension was cooled and the green solid, {[Cu(3,6,9-tdda)(phen)2]3H2O.EtOH}n(7), was filtered off, washed with cold ethanol and air dried. Yield: 1.63 g (66.09%). % Calculated: C: 54.87, H: 5.42, N: 7.53. % Found: C: 54.65, H: 5.63, N: 7.39.
[Ag2(3,6,9-tdda)(phen)4].EtOH (16). Step (i): Silver(I) acetate (3.00 g; 17.97 mmol) was dissolved in ethanol (30 mL) and the solution was added to an ethanolic solution (25 mL) of 3,6,9-trioxaundecanedioic acid (3,6,9-tddaH2) (2.84 g; 8.95 mmol) and the orange-brown suspension refluxed for 3 h. […] Green [Ag2(3,6,9-tdda)(phen)4].EtOH (16) precipitated and was filtered off, washed with cold ethanol and air dried. Yield: 0.83 g (65.10%). % Calculated: C: 57.92, H: 4.19, N: 9.32. % Found: C: 57.75, H: […], N: 9.02. IR (KBr) νmax: 3380, 3046, 2905, 1978, 1804, 1618, 1585, 1509, 1421, 1322, 1263, 1215, 1121, 1077, 1018, 932, 890, 838, 726, 621, 465, 413 cm^−1. ^1H NMR (500 MHz, DMSO-d6, 313 K, TMS) δ = 9.12(8H, s), 8.63 (8H, d), 8.08 (8H, s), 7.91 (8H, dd), 3.74 (4H, s), 3.57 (8H, dd). ^13C NMR (125 MHz, DMSO-d6, 313 K, TMS) δ = 173.41, 151.28, 143.57, 138.03, 129.24, 127.37, 124.74, 71.44, 70.42, 69.74.

In general, MIC refers to the lowest concentration found to suppress growth. For “{[Cu(3,6,9-tdda)(phen)2].3H2O.EtOH}n [compound 7]”, the GM-MIC stood at 2 mg/L in series [1], 2.52 mg/L in series [2] and 3.17 mg/L in series [3]. Further, the MIC in series [1] (isolate LIP Ch1) was determined as 2 mg/L; in series [1] (isolate LIP Ch6), 2 mg/L; in series [1] (isolate LIP Ch8), 2 mg/L; in series [2] (isolate LIP Ch5) it was 2 mg/L; in series [2] (isolate LIP Ch9) it was 2 mg/L; in series [2] (isolate LIP Ch11) it was 4 mg/L. In addition, the MIC is 4 mg/L in series [3] (isolate LIP Ch4), 4 mg/L in series [3] (isolate LIP Ch7), 2 mg/L in series [3] (isolate LIP Ch12) and 3.37 µM in series [4]. Moreover, in series [4], the “Overall GM-MIC” value was 2.52 mg/L. Moreover, the “Overall GM-bMIC” value in series [5] stood at 5.88 mg/L. In addition, the Solubility result in series [6] is “soluble in H2O, MeOH, EtOH and insoluble in ethyl acetate and acetone”.
For `CCO.O=C([O-])COCCOCCOCC(=O)[O-].[Ag+].[Ag+].c1cnc2c(c1)ccc1cccnc12.c1cnc2c(c1)ccc1cccnc12.c1cnc2c(c1)ccc1cccnc12.c1cnc2c(c1)ccc1cccnc12` [compound 16, [Ag2(3,6,9-tdda)(phen)4].EtOH], the GM-MIC in series [1] amounted to 1.26 mg/L; in series [2] it was 0.79 mg/L; in series [3], 1 mg/L. Besides, the MIC in series [1] (isolate LIP Ch1) is 2 mg/L; in series [1] (isolate LIP Ch6), 1 mg/L; in series [1] (isolate LIP Ch8), 1 mg/L; in series [2] (isolate LIP Ch5), 1 mg/L; in series [2] (isolate LIP Ch9), 0.5 mg/L; in series [2] (isolate LIP Ch11), 1 mg/L. For the same molecule, the minimal inhibitory concentration (MIC) in series [3] (isolate LIP Ch4) amounted to 1 mg/L; in series [3] (isolate LIP Ch7), 1 mg/L; in series [3] (isolate LIP Ch12), 1 mg/L; in series [4], 0.83 µM. In series [4], the “Overall GM-MIC” value was determined as 1 mg/L. Moreover, the “decrease in activity on going from planktonic to biofilm cells” value in series [5] (biofilm MIC versus planktonic MIC) stood at 6.3 fold. Moreover, the “Overall GM-bMIC” value in series [5] is 6.35 mg/L. Further, the Solubility entry in series [6] was “soluble in H2O, MeOH, EtOH and insoluble in ethyl acetate and acetone”.
